Reference: patent publication US10364247B2, “Preparation and use of novel protein kinase inhibitors” (Ruijin Hospital Affiliated to Shanghai Jiao Tong University …, priority 2015, dated 2019)

Experiments:
[1] = biological target: T1, ABL1(H396P)-nonphosphorylated (Homo sapiens, UniProt P00519, H396P); assay: KINOMEscan competition binding; conditions: read-out: Percent Control
T1 construct: purchased KINOMEscan (panel service)
Method: (§1) KINOMEscan™ is based on a competition binding assay that quantitatively measures the ability of a compound to compete with an immobilized, active-site directed ligand (Fabian et al. (2005) Nat. Biotechnol. 23, 329; Karaman et al. (2008) Nat. Biotechnol. 26, 127). The compound was screened at 10 μM, and results for primary screen binding interactions are reported as ‘% Ctrl’, where lower numbers indicate stronger hits. The results for kinases targets with a % Ctrl less than 30 can be seen in Table 2.

[2] = biological target: T2, ABL1(H396P)-phosphorylated (Homo sapiens, UniProt P00519, H396P); assay: KINOMEscan competition binding; conditions: read-out: Percent Control
T2 construct: purchased KINOMEscan (panel service)
Method: as §1

[3] = biological target: ABL1(M351T)-phosphorylated (Homo sapiens, UniProt P00519, M351T); assay: KINOMEscan competition binding; conditions: read-out: Percent Control
Method: as §1

[4] = biological target: ABL1(Q252H)-phosphorylated (Homo sapiens, UniProt P00519, Q252H); assay: KINOMEscan competition binding; conditions: read-out: Percent Control
Method: as §1

ABL1-phosphorylated = ABL1-phosphorylated (Homo sapiens, UniProt P00519); assay: KINOMEscan competition binding; conditions: read-out: Percent Control
Method: as §1

ALK = biological target: T3, ALK (Homo sapiens, UniProt Q9UM73); assay: KINOMEscan competition binding; conditions: read-out: Percent Control
T3 construct: purchased KINOMEscan (screening service)
Method: as §1

AURKC = biological target: T4, AURKC (Homo sapiens, UniProt Q9UQB9); assay: KINOMEscan competition binding; conditions: read-out: Percent Control
T4 construct: purchased KINOMEscan (screening service)
T4 sequence (Q9UQB9 whole entry): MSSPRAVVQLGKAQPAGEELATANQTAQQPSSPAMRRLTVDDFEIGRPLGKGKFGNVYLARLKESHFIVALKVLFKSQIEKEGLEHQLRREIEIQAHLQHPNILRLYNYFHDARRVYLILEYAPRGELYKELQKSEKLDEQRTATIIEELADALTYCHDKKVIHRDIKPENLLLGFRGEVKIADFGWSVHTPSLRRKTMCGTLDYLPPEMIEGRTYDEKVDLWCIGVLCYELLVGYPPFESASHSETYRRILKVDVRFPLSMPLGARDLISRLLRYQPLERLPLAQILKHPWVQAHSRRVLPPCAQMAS
Method: as §1

BMX = BMX (Homo sapiens, UniProt P51813); assay: KINOMEscan competition binding; conditions: read-out: Percent Control
Method: as §1

BTK = biological target: T5, BTK (Homo sapiens, UniProt Q06187); assay: KINOMEscan competition binding; conditions: read-out: Percent Control
T5 construct: purchased KINOMEscan (panel service)
T5 sequence (Q06187 whole entry): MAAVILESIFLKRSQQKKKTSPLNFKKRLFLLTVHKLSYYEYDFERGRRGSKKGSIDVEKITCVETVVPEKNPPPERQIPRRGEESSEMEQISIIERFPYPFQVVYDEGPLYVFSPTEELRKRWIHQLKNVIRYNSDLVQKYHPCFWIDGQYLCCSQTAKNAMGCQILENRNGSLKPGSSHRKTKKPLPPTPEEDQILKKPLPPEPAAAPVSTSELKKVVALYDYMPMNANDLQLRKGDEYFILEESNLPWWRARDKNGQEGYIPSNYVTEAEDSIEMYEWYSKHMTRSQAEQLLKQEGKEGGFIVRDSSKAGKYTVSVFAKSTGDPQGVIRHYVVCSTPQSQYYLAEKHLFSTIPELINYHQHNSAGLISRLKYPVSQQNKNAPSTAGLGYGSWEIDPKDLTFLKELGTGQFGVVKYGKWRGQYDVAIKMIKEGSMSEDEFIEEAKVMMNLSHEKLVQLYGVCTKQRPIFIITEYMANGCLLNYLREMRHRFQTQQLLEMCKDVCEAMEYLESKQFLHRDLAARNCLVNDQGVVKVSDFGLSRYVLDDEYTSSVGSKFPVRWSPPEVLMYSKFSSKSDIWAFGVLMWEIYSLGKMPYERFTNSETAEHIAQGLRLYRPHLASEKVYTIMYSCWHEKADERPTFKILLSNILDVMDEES
Method: as §1

CSK = CSK (Homo sapiens, UniProt P41240); assay: KINOMEscan competition binding; conditions: read-out: Percent Control
Method: as §1

EGFR = biological target: T6, EGFR (Homo sapiens, UniProt P00533); assay: KINOMEscan competition binding; conditions: read-out: Percent Control
T6 construct: purchased KINOMEscan (panel service)
Method: as §1

EGFR(E746-A750del) = EGFR(E746-A750del) (Homo sapiens, UniProt P00533, DEL746-750); assay: KINOMEscan competition binding; conditions: read-out: Percent Control
Method: as §1

EGFR(L747-T751del, Sins) = assay: KINOMEscan competition binding; conditions: 10 μM
Method: as §1

EGFR(S752-I759del) = EGFR(S752-I759del) (Homo sapiens, UniProt P00533, DEL752-759); assay: KINOMEscan competition binding; conditions: read-out: Percent Control
Method: as §1

EPHA5 = EPHA5 (Homo sapiens, UniProt P54756); assay: KINOMEscan competition binding; conditions: read-out: Percent Control
Method: as §1

EPHB1 = biological target: T7, EPHB1 (Homo sapiens, UniProt P54762); assay: KINOMEscan competition binding; conditions: read-out: Percent Control
T7 construct: purchased KINOMEscan (panel service)
T7 sequence (P54762 18-984): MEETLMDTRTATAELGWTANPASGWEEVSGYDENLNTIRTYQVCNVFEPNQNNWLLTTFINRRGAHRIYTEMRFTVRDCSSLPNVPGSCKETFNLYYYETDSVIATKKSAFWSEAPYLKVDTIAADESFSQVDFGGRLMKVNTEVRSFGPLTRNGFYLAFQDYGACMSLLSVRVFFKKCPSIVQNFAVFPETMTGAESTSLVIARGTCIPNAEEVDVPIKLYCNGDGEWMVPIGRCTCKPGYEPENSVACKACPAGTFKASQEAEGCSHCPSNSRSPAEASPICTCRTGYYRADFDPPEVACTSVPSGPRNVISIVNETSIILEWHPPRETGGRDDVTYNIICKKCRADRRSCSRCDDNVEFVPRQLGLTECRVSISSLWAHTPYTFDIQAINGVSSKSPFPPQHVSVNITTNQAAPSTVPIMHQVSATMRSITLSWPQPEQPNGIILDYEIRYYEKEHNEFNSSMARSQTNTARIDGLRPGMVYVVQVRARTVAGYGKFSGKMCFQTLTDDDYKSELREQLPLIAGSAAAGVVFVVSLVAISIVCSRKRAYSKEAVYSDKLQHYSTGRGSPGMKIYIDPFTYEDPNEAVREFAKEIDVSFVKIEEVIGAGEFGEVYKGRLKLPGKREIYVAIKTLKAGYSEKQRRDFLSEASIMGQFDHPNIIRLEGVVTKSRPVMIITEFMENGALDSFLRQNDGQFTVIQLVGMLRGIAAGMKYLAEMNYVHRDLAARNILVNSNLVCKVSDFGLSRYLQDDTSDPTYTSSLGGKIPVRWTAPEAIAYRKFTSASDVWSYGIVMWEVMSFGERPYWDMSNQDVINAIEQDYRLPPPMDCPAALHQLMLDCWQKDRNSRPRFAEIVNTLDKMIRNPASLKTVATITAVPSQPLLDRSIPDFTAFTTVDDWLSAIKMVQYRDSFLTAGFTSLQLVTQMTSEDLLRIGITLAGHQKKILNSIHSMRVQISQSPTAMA
Method: as §1

ERBB2 = ERBB2 (Homo sapiens, UniProt P04626); assay: KINOMEscan competition binding; conditions: read-out: Percent Control
ERBB2, sequence (P04626 23-1255): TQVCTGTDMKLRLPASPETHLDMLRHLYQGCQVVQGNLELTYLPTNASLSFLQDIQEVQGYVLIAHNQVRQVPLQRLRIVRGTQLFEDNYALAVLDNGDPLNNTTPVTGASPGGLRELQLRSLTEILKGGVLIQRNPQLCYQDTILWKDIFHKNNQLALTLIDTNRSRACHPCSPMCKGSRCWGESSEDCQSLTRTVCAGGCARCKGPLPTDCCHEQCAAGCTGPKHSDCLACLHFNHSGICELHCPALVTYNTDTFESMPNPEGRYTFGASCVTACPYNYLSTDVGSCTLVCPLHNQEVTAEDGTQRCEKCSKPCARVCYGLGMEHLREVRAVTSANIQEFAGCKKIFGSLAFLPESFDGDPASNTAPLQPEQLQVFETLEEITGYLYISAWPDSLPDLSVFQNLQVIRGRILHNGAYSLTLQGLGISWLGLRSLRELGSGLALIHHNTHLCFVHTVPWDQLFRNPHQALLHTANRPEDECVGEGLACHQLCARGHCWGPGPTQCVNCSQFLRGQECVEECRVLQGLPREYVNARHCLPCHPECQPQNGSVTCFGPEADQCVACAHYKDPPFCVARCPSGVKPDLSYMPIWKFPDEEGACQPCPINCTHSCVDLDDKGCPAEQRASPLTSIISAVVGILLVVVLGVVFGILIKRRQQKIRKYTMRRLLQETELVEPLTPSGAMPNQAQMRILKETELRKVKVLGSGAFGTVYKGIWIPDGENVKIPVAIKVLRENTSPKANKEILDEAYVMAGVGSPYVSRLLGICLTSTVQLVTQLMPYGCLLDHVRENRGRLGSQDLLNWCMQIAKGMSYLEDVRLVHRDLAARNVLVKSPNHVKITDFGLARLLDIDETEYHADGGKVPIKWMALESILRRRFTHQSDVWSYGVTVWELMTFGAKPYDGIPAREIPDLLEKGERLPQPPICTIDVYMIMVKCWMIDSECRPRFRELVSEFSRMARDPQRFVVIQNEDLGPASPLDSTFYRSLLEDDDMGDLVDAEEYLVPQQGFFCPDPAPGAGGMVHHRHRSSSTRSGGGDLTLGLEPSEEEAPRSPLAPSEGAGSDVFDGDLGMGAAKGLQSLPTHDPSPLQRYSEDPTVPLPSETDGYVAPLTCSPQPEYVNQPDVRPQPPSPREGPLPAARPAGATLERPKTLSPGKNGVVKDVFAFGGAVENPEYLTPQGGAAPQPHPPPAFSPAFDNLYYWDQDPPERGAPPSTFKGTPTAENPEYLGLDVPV
Method: as §1

FLT1 = FLT1 (Homo sapiens, UniProt P17948); assay: KINOMEscan competition binding; conditions: read-out: Percent Control
Method: as §1

FLT3(D835H) = FLT3(D835H) (Homo sapiens, UniProt P36888, D835H); assay: KINOMEscan competition binding; conditions: read-out: Percent Control
Method: as §1

FLT4 = FLT4 (Homo sapiens, UniProt P35916); assay: KINOMEscan competition binding; conditions: read-out: Percent Control
Method: as §1

FRK = FRK (Homo sapiens, UniProt P42685); assay: KINOMEscan competition binding; conditions: read-out: Percent Control
Method: as §1

JNK1 = biological target: T8, JNK1 (Homo sapiens, UniProt P45983); assay: KINOMEscan competition binding; conditions: JNK1 (Entrez MAPK8), read-out: Percent Control
T8 construct: purchased KINOMEscan (screening platform)
T8 sequence (P45983 whole entry): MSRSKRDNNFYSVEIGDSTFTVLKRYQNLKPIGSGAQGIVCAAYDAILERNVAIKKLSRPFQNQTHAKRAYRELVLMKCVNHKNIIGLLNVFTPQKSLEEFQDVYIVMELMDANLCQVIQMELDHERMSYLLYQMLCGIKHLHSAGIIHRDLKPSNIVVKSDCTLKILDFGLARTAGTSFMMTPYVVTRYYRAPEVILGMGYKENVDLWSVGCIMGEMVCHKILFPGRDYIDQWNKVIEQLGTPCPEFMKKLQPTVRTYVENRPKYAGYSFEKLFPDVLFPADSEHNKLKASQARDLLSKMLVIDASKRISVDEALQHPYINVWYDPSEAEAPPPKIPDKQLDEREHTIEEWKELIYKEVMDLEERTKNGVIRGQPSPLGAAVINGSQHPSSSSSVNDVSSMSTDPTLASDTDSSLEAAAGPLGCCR
Method: as §1

KIT(A829P) = KIT(A829P) (Homo sapiens, UniProt P10721, A829P); assay: KINOMEscan competition binding; conditions: read-out: Percent Control
Method: as §1

MAP3K2 = MAP3K2 (Homo sapiens, UniProt Q9Y2U5); assay: KINOMEscan competition binding; conditions: read-out: Percent Control
Method: as §1

MEK5 = MEK5 (Homo sapiens, UniProt Q13163); assay: KINOMEscan competition binding; conditions: MEK5 (Entrez MAP2K5), read-out: Percent Control
Method: as §1

RAF1 = biological target: T9, RAF1 (Homo sapiens, UniProt P04049); assay: KINOMEscan competition binding; conditions: read-out: Percent Control
T9 construct: purchased KINOMEscan (screening service)
Method: as §1

RET = RET (Homo sapiens, UniProt P07949); assay: KINOMEscan competition binding; conditions: read-out: Percent Control
RET, sequence (P07949 29-1114): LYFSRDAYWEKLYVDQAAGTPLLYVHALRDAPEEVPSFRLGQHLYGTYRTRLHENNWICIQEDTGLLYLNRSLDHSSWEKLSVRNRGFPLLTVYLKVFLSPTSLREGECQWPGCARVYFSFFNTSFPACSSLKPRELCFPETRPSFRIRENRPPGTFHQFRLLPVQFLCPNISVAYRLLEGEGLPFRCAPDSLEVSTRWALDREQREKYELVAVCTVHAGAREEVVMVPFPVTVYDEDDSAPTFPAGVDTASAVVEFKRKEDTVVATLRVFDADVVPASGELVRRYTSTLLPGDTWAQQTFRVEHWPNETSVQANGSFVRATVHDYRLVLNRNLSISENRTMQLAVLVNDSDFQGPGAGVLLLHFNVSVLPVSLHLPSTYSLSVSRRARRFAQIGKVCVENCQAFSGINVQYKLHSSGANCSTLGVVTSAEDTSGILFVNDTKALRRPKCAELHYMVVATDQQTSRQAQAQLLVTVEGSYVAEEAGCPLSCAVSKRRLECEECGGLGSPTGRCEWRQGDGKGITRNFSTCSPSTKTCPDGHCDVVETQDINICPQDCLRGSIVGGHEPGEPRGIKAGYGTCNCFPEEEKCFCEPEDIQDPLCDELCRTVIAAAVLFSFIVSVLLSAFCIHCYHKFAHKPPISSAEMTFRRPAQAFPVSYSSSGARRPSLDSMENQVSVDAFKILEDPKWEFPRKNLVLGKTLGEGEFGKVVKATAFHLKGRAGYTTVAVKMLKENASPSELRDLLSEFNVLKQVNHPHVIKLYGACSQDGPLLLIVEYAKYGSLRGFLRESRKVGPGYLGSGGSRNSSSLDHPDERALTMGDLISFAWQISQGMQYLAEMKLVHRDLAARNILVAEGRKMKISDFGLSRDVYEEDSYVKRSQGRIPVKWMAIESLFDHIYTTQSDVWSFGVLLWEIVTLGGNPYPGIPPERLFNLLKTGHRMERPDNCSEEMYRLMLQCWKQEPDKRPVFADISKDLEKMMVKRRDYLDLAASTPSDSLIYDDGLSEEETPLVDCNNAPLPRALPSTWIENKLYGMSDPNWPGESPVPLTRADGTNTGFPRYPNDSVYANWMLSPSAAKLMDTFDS
Method: as §1

[5] = biological target: T10, RSK4(Kin.Dom.2-C-terminal) (Homo sapiens, UniProt Q9UK32); assay: KINOMEscan competition binding; conditions: RSK4(Kin.Dom.2-C-terminal) (Entrez RPS6KA6), read-out: Percent Control
T10 construct: RSK4(Kin.Dom.2-C-terminal)
T10 sequence (Q9UK32 426-683 limits assumed): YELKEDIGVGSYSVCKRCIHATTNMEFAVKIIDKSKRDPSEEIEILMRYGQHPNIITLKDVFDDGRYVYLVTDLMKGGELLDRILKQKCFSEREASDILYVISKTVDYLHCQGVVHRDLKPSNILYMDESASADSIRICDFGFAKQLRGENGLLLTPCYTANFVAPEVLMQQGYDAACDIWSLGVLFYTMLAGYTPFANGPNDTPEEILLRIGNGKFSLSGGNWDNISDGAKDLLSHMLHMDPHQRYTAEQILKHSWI
Method: as §1

YES = biological target: T11, YES (Homo sapiens, UniProt P07947); assay: KINOMEscan competition binding; conditions: YES (Entrez YES1), read-out: Percent Control
T11 construct: purchased KINOMEscan (panel service)
Method: as §1

CML mice = assay: Mouse CML model, Kaplan-Meier survival; format: in vivo; conditions: 10 mg/kg IA-9 by oral gavage twice a day vs vehicle and 50 mg/kg imatinib; FIG. 2
Method: The number (n) of mice treated in each group was indicated.
The activity of IA-9 to treat leukemia was tested in a mouse CML model as described ^4. Bone marrow cells from 5-fluorouracil (5-FU)-treated male BALB/c donor mice 5 days before were infected at a concentration of 1×10^6 cells/mL for 24 hours in a cocktail consisting of DMEM, 15% FCS, 5% WEHI-conditioned medium, 50% viral supernatant, 3 μg/mL polybrene, 2 mmol/L L-glutamine, PSA, 7 ng/mL IL-3, 12 ng/mL IL-6 and 56 ng/mL stem cell factor (SCF; R&D System). The infection was repeated once with freshly made retrovirus-containing cocktail as described above. The infected bone marrow cells were then washed once with phosphate-buffered saline and were injected into lethally irradiated (2 doses of 450 rads each dose administered 4 hours apart) syngeneic mice (female BALB/c; 6 to 8 weeks old) through the tail vein at 4×10^5 cells per mouse. Starting at […] bone marrow transplantation, the recipient mice were treated with vehicle (10% 1-methyl-2-pyrrolidinone:90% PEG-300), 50 mg/kg imatinib or 10 mg/kg IA-9 by oral gavage twice a day.

## Cc1ccc(Nc2ncc3c(n2)N(C)CN(c2cc(NC(=O)c4cccc(C(F)(F)F)c4)ccc2C)C3)cn1 [IA-9, N-(4-methyl-3-(1-methyl-7-((6-methylpyridin-3-yl)amino)-1,4-dihydropyrimido[4,5-d]pyrimidin-3(2H)-yl)phenyl)-3-(trifluoromethyl)benzamide]
[1]
  remaining binding at 10 µM: 0.05%
[2]
  remaining binding at 10 µM: 0.15%
[3]
  remaining binding at 10 µM: 1.2%
[4]
  remaining binding at 10 µM: 0.2%
ABL1-phosphorylated
  remaining binding at 10 µM: 0.3%
ALK
  remaining binding at 10 µM: 22%
AURKC
  remaining binding at 10 µM: 6.9%
BMX
  remaining binding at 10 µM: 0.75%
BTK
  remaining binding at 10 µM: 0.15%
CSK
  remaining binding at 10 µM: 0.9%
EGFR
  remaining binding at 10 µM: 0.05%
EGFR(E746-A750del)
  remaining binding at 10 µM: 2.3%
EGFR(L747-T751del, Sins)
  Percent Control: 0.4 % Ctrl
EGFR(S752-I759del)
  remaining binding at 10 µM: 0%
EPHA5
  remaining binding at 10 µM: 0.9%
EPHB1
  remaining binding at 10 µM: 0.15%
ERBB2
  remaining binding at 10 µM: 0%
FLT1
  remaining binding at 10 µM: 0.55%
FLT3(D835H)
  remaining binding at 10 µM: 3.2%
FLT4
  remaining binding at 10 µM: 0%
FRK
  remaining binding at 10 µM: 0%
JNK1
  remaining binding at 10 µM: 28%
KIT(A829P)
  remaining binding at 10 µM: 3.6%
MAP3K2
  remaining binding at 10 µM: 5%
MEK5
  remaining binding at 10 µM: 0.3%
RAF1
  remaining binding at 10 µM: 12%
RET
  remaining binding at 10 µM: 0%
[5]
  remaining binding at 10 µM: 2.6%
YES
  remaining binding at 10 µM: 0.05%
CML mice
  anti-leukemia activity (Kaplan-Meier survival): significantly stronger anti-leukemia activity
